Patent US7868206B2, “Trihalomethionine derivative and pharmaceutical product containing the same” (National University Corporation, Gunma University, priority 2005, dated 2011)
pIC50: −log10 of the molar value. “And” between values parts separate entries of the source, which are not always exact repeats. Equal entries are not always repeated. “Also recorded” adds a separate entry of the source. Structures can show the parent of a compound that is named as a salt. Where two headings read alike, the source gives them in different places.

Key:
[1] = tested on: Entamoeba histolytica HM1: IMSS c16 strain; assay: Inhibition of proliferation of Entamoeba histolytica, anaerobic culture in 96-well plate, 72 hours, WST-1 (Example 2); type: cell-based; conditions: for pIC50: Entamoeba histolytica, 0.25 to 20 μM, anaerobic culture, read-out: IC50 (concentration required to inhibit proliferation by 50% compared to untreated controls)
Procedure: (§1) The Entamoeba histolytica HM1: IMSS c16 strain was cultured for 18 hours in a medium containing each compound at a concentration of 80 μM. […] The cell number was measured by determining the number of living cells of Entamoeba histolytica using WST-1 (Roche Diagnostics K.K.).
The killing effects of each of the compounds: trifluoromethionine (TFM), trifluoromethionine amide (WY200), SK254, SK258, WY241, WY244, WY252, K010, SK276, SK316, SK336, and SK337 on Entamoeba histolytica HM1: IMSS c16 strain were examined. The Entamoeba histolytica HM1: IMSS c16 strain was anaerobically cultured in a medium containing each compound at a concentration of 0.25 to 20 μM in a 96-well plate: The number of cells after 72 hours was determined in the same way as Example 1. […] It was found from the results that many compounds including SK337 killed the Entamoeba histolytica protozoan at concentrations more than 10-fold lower than the concentration of trifluoromethionine.

[2] = tested on: Entamoeba histolytica HM1: IMSS c16 strain; conditions: for Total liver weight / Liver non-abscess portions / Liver abscess portions: individual hamsters A, B, C; for Liver abscess portions: dash = no abscess (total = non-abscess)
Procedure: Next, the compound of the present invention was evaluated in an animal infection experiment using a hamster liver abscess model. First, an Entamoeba histolytica HM1: IMSS c16 strain was injected to 3-week-old female hamsters to induce liver abscesses. […] In Table 2, A, B, and C in the respective groups show individual hamsters used. Many other compounds (trifluoromethionine, SK254, SK258, WY241, WY244, and WY252) were evaluated in animal infection experiments in the same way as Example 3.

[3] = tested on: Entamoeba histolytica HM1: IMSS c16 strain; assay: Killing effect on Entamoeba histolytica, living cell number by WST-1 after 18 hours (Example 1, FIG. 1); type: cell-based; conditions: 80 μM, 18 hours culture
Procedure: as §1, with “The killing effect of each of the compounds: trifluoromethionine (TFM), trifluoromethionine amide (WY200), metronidazole (known anti-amoeba drug) on an Entamoeba histolytica HM1: IMSS c16 strain was examined. The Entamoeba” for “The Entamoeba”

[4] = intraperitoneal 3 μmol (1.1 to 1.3 mg) per hamster (body weight 28 to 37 g), hydrochloride
[5] = intraperitoneal 3 μmol per hamster, hydrochloride
[6] = intraperitoneal 3 μmol (1.1 to 1.3 mg) per hamster (body weight 28 to 37 g)
[7] = intraperitoneal 3 μmol per hamster

## NC(CSC(F)(F)F)C(=O)Nc1ccccc1 (stereo in doubt) [KO10, (S)-2-amino-N-phenyl-3-(trifluoromethylthio)propanamide hydrochloride]
[1]
  pIC50: 4.86

## Cl.N[C@@H](CCSC(F)(F)F)C(=O)NCc1ccccc1 [SK254, (S)-2-amino-N-benzyl-4-(trifluoromethylthio)butanamide hydrochloride]
[1]
  pIC50: 5.60
[2]; [4]
  Total liver weight: A. 2,318 mg; also recorded: B. 2,193 mg; also recorded: C. 2,386 mg
[2]; [5]
  Liver non-abscess portions: 2,318 mg and 2,193 mg and 2,386 mg

## Cl.N[C@@H](CCSC(F)(F)F)C(=O)Nc1ccccc1 [SK258, (S)-2-amino-N-phenyl-4-(trifluoromethylthio)butanamide hydrochloride]
[1]
  pIC50: 5.60
[2]; [4]
  Total liver weight: A. 2,071 mg; also recorded: B. 2,768 mg; also recorded: C. 1,510 mg
[2]; [5]
  Liver non-abscess portions: 2,071 mg and 2,768 mg and 1,510 mg

## N[C@@H](CCSC(F)(F)F)C(=O)NC1CCc2ccccc21 (stereo partly drawn) [SK276, (2S)-2-amino-N-(2,3-dihydro-1H-inden-1-yl)-4-(trifluoromethylthio) butanamide hydrochloride]
[1]
  pIC50: 5.17

## N[C@@H](CSC(F)(F)F)C(=O)NCc1ccccc1 [SK316, (R)-2-amino-N-benzyl-3-(trifluoromethylthio)propanamide hydrochloride]
[1]
  pIC50: 5.05

## COc1cc(NC(=O)[C@@H](N)CCSC(F)(F)F)cc(OC)c1OC [SK336, (S)-2-amino-N-(3,4,5-trimethoxyphenyl)-4-(trifluoromethylthio)butanamide hydrochloride]
[1]
  pIC50: 5.77

## COc1ccc(NC(=O)[C@@H](N)CCSC(F)(F)F)cc1OC.Cl [SK337, (S)-2-amino-N-(3,4-dimethoxyphenyl)-4-(trifluoromethylthio)butanamide hydrochloride]
[1]
  pIC50: 5.82
[1]; compared with trifluoromethionine
  concentration lower than the concentration of trifluoromethionine: more than 10 fold

## N[C@@H](CCSC(F)(F)F)C(=O)O [TFM, trifluoromethionine, reference compound]
[1]
  pIC50: 4.76
[2]; [6]
  Total liver weight: A. 2,240 mg; also recorded: B. 2,415 mg; also recorded: C. 2,575 mg
[2]; [7]
  Liver non-abscess portions: 2,240 mg and 2,415 mg and 2,575 mg

## NC(=O)[C@@H](N)CCSC(F)(F)F [WY200, trifluoromethionine amide]
[3]
  killing effect on Entamoeba histolytica (number of living cells): more effectively than trifluoromethionine
[2]; [6]
  Total liver weight: A. 3,059 mg; also recorded: B. 1,624 mg
[2]; [7]
  Liver non-abscess portions: 3,059 mg and 1,624 mg
[2]; intraperitoneal 40 μmol
  increase of total weights of the liver (in words): did not increase the total weights of the liver
  liver abscess formation (in words): caused no liver abscess
  Liver non-abscess portions: 2814 mg and 2145 mg
[2]; intraperitoneal 40 μmol, 3-week-old female hamsters
  Total liver weight: B. 2814 mg; also recorded: A. 2157 mg

## Cl.N[C@@H](CCSC(F)(F)F)C(=O)Nc1ccc(Br)cc1 [WY241, 1-(4-bromophenylcarbamoyl)-3-trifluoromethylsulfanyl-propyl-ammonium chloride]
[1]
  pIC50: 4.93
[2]; [6]
  Total liver weight: A. 2,916 mg; also recorded: B. 2,371 mg; also recorded: C. 2,900 mg
[2]; [7]
  Liver non-abscess portions: 2,916 mg and 2,371 mg and 2,900 mg

## Cl.N[C@@H](CCSC(F)(F)F)C(=O)Nc1ccc(F)cc1F [WY244, 1-(2,4-difluoro-phenylcarbamoyl)-3-trifluoromethylsulfanyl-propyl-ammonium chloride]
[1]
  pIC50: 5.26
[2]; [6]
  Total liver weight: A. 2,575 mg; also recorded: B. 2,181 mg; also recorded: C. 2,570 mg
[2]; [7]
  Liver non-abscess portions: 2,561 mg and 2,181 mg and 2,570 mg
  Liver abscess portions: 14 mg

## COc1cc(NC(=O)[C@@H](N)CCSC(F)(F)F)cc(OC)c1.Cl [WY252, 1-(3,5-dimethoxy-phenylcarbamoyl)-3-trifluoromethylsulfanyl-propylammonium chloride]
[1]
  pIC50: 5.80
[2]; [6]
  Total liver weight: A. 2,539 mg; also recorded: B. 3,338 mg; also recorded: C. 2,687 mg
[2]; [7]
  Liver non-abscess portions: 2,1204 mg and 3,338 mg and 2,687 mg
  Liver abscess portions: 19 mg
